# Experiment: Binding affinity towards Opioid receptor delta 1 by displacing the radioligand [3H]naltrindole from guinea pig brain membrane
row,Compound,Ki
1,"C[C@H]1C2C(=O)c3ccc(O)cc3[C@@]1(C)CCN2CC1CCCO1 (stereo partly drawn) [8-Hydroxy-6,11-dimethyl-3-(tetrahydro-furan-2-ylmethyl)-3,4,5,6-tetrahydro-2H-2,6-methano-benzo[d]azocin-1-one]",> 100000 nM
2,O=C1c2ccc(O)cc2C23CCCCC2C1N(CC1CC1)CC3 (stereo not drawn),150 nM
3,O=C1c2ccc(O)cc2C23CCCCC2C1N(CC1CCCO1)CC3 (stereo not drawn),1 nM

# — BindingDB's records for doi:10.1021/jm9903343 (Harvard Medical School, 2000)
